The values below come from patent US9278924B2, “5-nonyloxytryptamine and related intracellular PH acidifiers for the treatment and prevention of cancer” (THE JOHNS HOPKINS UNIVERSITY, priority 2011, dated 2016).

For data set [1], the system named is GBM neurosphere lines. The data set is described as follows: cAMP GLO assay of cellular cAMP levels. The data set is classed as cell-based. The note with it: three GBM neurosphere lines. From the text:
In this assay cAMP levels are inversely correlated with luminescence (RLU). Cyanopindolol is a Gα antagonist and is required for detection of 5HTR1B activity. Sumatriptan, another 5HTR1B agonist (similar to 5-NOTO), and forskolin {a known Gα agonist) were used as controls.
The Serotonin Receptors 5HTR1B and 5HTR1A are Not the Target Of 5-NOTO Action in GBM. 5-NOTO is not an FDA approved drug but its biological target is known. 5-NOTO is a specific agonist for the 5HTR1B serotonin receptor (400 times more specific for 5HTR1B then for 5HTR1A). 5HTR1B (as well as other 5HTR1 isoforms) are heterotrimeric G-protein coupled receptors which interact with Gα an inhibitor of adenylate cyclase. Therefore, we sought to determine if treatment with 5-NOTO will result in decreased cellular cAMP levels as activation of Gα should inhibit adenylate cydase, the enzyme which catalyzes the conversion of ATP to cAMP. To this end, cells were treated with cyanopindolol, an antagonist of 5HTR1B, which should increase adenylate cyclase activity (if 5HTR1B is functional), and either 5-NOTO or sumatriptan, the latter being similar to 5-NOTO, activating both 5HTR1B and 5HTR1A. […] Importantly, sumatriptan also had no effect on cellular cAMP levels, strengthening the notion that 5HTR1B (and likely 5HTR1A) have very little to no effect on cellular cAMP levels in the GBM models.
On the technique in general: Cyclic AMP is a second messenger, typically raised through Gs and lowered through Gi signalling.

For data set [2], the system named is GBM-derived neurosphere cell lines. The data set is described as follows: MTT growth assay. It is filed as cell-based. The following applies: 72 h, read-out: inhibition of growth (viable cell mass, MTT). On the procedure:
FIG. 2 depicts MTT growth assays for neurospheres treated with 5-NOTO. Cells were plated in 96-multiwell plates and treated with either DM50 (Control •) or 5-NOTO (at 1 uM ▪ and 10 μM ▴). MTT reagent was added to indirectly measure viable cell mass at each time point. Absorbance was measured wt 490 nm using an Epoch Microplate Spectrophotometer (BioTek).
5-NOTO is a Potent Inhibitor of Cancer Cell Growth. To test the hypothesis that as a pH acidifier, 5-NOTO should reduce cell proliferation, we treated three independent GBM-derived neurosphere cell lines with DMSO (control), 1 μM, and 10 μM 5-NOTO for three days. Accumulation of viable cell mass was measured using MTT growth assay (Promega). Absorbance (A490) was measured using an Epoch Microplate Spectrophotometer (Biotek) at the indicated time points.
On the technique in general: Formazan colour is commonly taken as a measure of viable cells.

For data set [3], the system named is GBM neurospheres. The data set can be described thus: Guava ViaCount cell viability, IC50 determination. The note with it: 48 hours, all neurospheres tested; read-out: IC50 (concentration required to kill 50% of the cells). The data set is classed as cell-based. As to the method:
Cells were treated for 48 hours with various concentrations of 5-NOTO and incubated for 48 hours in humidified incubator as which point, Guava Viacount reagent (Millipore) was used to assess the percentage of viable cells remaining in each treatment well. IC50 (concentration of drug required for 50% reduction in cell viability) was calculated using Graphpad 5.0 software package. The respective IC50 is indicated for each neurosphere line.
Determination of cytotoxic effects. We next sought to determine the concentration of 5-NOTO which is required to kill 50% of the cells (e.g. IC50). Cells were plated in 24-well plates at 25,000 cells/well and treated for 48 hours with either DMSO (control) or various concentration of 5-NOTO (FIG. 2). Guava PCA flow cytometry system was used with the Guava Viawunt reagent (Millipore) to determine cell viability. Data was analyzed using GraphPad 5.0 software package. IC50 was calculated using non linear regression.

Data set [4] concerns 020913 GBM neurospheres. The data set is described as follows: Annexin V apoptosis assay. The data set is classed as cell-based. The following applies: 10 μM, 24 hours; DMSO 10-20%. On the procedure: (§1) FIG. 4 depicts apoptosis analysis for GBM neurospheres treated with 5-NOTO for 24 hours. Cells were plated and then treated for 24 hours with DMSO (control), 1 μM and 10 μM 5-NOTO. Cells were then processed for Annexin V assay using the Nexin reagent (Millipore) and % Annexin positive cells was determined using flow cytometry.
(§2) 5-NOTO Induces Apoptosis in GBM Neurospheres. To ascertain that 5-NOTO induces apoptosis, cells were treated with DMSO (control), 1 μM, and 10 μM 5-NOTO for 24 hours at which point cells were processed for Annexin V apoptosis assay (Millipore), which is a simple and effective method to detect one of the earliest events in apoptosis, the externalization of phosphatidylserine in living cells. […] Higher levels of 5-NOTO (100 μM) eliminated the vast majority of viable cells (80-90%) 48 hours post treatment (Data not shown)).

Data set [5] relates to 040622 GBM neurospheres. The data set is described as follows: Annexin V apoptosis assay. The data set is classed as cell-based. The note with it: 10 μM, 24 hours; DMSO 10-20%. On the procedure:
as §1, §2

Data set [6] deals with 040821 GBM neurospheres. The data set is described as follows: Annexin V apoptosis assay. It is filed as cell-based. The following applies: 10 μM, 24 hours; DMSO 10-20%. As to the method:
as §1, §2

In data set [7] the test system is GBM neurospheres. The data set can be described thus: Elimination of viable cells at high 5-NOTO level. It is filed as cell-based. The note with it: 48 h, read-out: viable cells eliminated. On the procedure: as §2
In data set [8] the test system is 020913 neurospheres. The data set is described as follows: ATPlite luminescence assay of cellular ATP. The data set is classed as cell-based. The note with it: 1 μM and 10 μM, 1 or 3 hours. On the procedure: Cells were incubated for either 1 or 3 hours in the presence of DMSO (control) or 5-NOTO (1 μM and 10 μM), ATP levels were determined using ATPlite Luminescence Assay System (PerkinElmer) according to manufacturer instructions.
5-NOTO Induces Rapid Necrosis in GBM Neurospheres. One of the classical features of necrotic cells is rapid and significant drop in intracellular ATP levels. The effect of 5-NOTO on ATP release was assayed at 1 hr and 3 hr post-treatment as follows. Briefly, 020913 neurospheres were triturated to a single-cell suspension and 20,000 cells were plated per well. Cells were plated in triplicates for vehicle alone, 1 μM 5-NOTO, and 10 μM 5-NOTO. At each time point, 100 μl of ATPlite 1-step reagent (Perkin Elmer) was added to each well and incubated with shaking for 2 minutes. After dark adaptation for 10 minutes, the samples were read using a microplate reader (Perkin Elmer). Readings were averaged and the percent differences in ATP release between treated and vehicle alone were calculated (RLU). This experiment was performed in triplicate with similar results (FIG. 6).

Data set [9] relates to 040622 GBM neurospheres. The data set can be described thus: Apoptosis/necrosis evaluation with Guava Nexin reagent, 30 minutes. It is filed as cell-based. As to the method: Cells were treated with DMSO (control), the multi caspase inhibitor Z-VAD-FMK (20 μM), 5-NOTO (10 μM) or the latter two in combination. Guava Nexin assay reagent was used to determine Viable (black), apoptotic (yellow), and necrotic/apoptotic (Red) cell fractions.
To test necrotic cell death directly, cells were treated with DMSO (control) or 10 μM 5-NOTO for 30 minutes followed by apoptosis/necrosis evaluation using Guava PCA flow cytometer and Nexin reagent (Millipore). […] Similar results were documented for 020913 and 040821 neurospheres (not shown).

Data set [10] in a line: Guava ViaCount viability assay. It is filed as cell-based. The following applies: human, uveal melanoma cell line OCM1, read-out: percentage of viable cells. On the procedure:
(§3) Cells were plated in 24-well plates and treated with DMSO or t 10 μM 5-NOTO. 48 hours later, cell viability was determined using Guava PCA flow cytometer with Guava ViaCount reagent.
(§4) We next sought to examine if 5-NOTO is generally cytotoxic or if its cytotoxicity may be specific to some cancer types. To this end, we examined the apoptotic induction in a uveal melanoma cell line, OCM 1. Cells were treated for 48 hours with 10 μM of 5-NOTO followed by Viacount assay. 5-NOTO had no effect on viability of OCM1 as the percentage of viable cells remained greater than 90% (FIG. 8). In contrast, percent viability in 020913 neurospheres treated with 10 μM 5-NOTO was only 10%.

The subject of data set [11] is GBM-derived neurosphere line 020913. The data set is described as follows: Guava ViaCount viability assay. The note with it: 48 h, read-out: percent viability. It is filed as cell-based. As to the method:
as §3, §4

For data set [12], the system named is GBM neurospheres 020913. The data set can be described thus: Necrosis by Nexin staining and flow cytometry, 90 minutes. The data set is classed as cell-based. The following applies: 10 μM, DMSO 13%. As to the method: (§5) FIG. 9 depicts induction of necrotic cell death by 5-NOTO. GBM neurospheres 020913 and 040622 and normal neural stem cells immortalized with v-Myc (VNSC) were treated with DMSO (control, black bars) or with 10 μM 5-NOTO (red bars). Cells were treated for 90 minutes and then processed for viability assay using Nexin staining % Necrosis was determined by flow cytometry. […] VNSCs on the other hand were completely resistant to 5-NOTO showing 26% and 25% in DMSO and 5-NOTO treatments, respectively.
(§6) Induction of Necrotic Cell Death by 5-NOTO. GBM neurospheres 020913 and 040622 and normal neural stem cells immortalized with v-Myc (VNSC) were treated with DMSO (control, black bars) or with 10 μM 5-NOTO. Cells were treated for 90 minutes and then processed for viability assay using Nexin staining % Necrosis was determined by flow cytometry. […] VNSCs on the other hand were completely resistant to 5-NOTO showing 26% and 25% in DMSO and 5-NOTO treatments, respectively.
In general terms: Flow cytometry measures light scatter and fluorescence of single cells or particles in a stream.

Data set [13] has as its system GBM neurospheres 040622. Described as above. It is filed as cell-based. The following applies: 10 μM, DMSO 5%. On the procedure: as §5, §6
In data set [14] the test system is normal neural stem cells immortalized with v-Myc (VNSC). The data set is described as above. It is filed as cell-based. The following applies: 10 μM, DMSO 26%. As to the method: as §5, §6
Data set [15] deals with 5HTR1B serotonin receptor (Homo sapiens, UniProt P28222). The note with it: agonist; cited from earlier work.
Sequence of 5HTR1B serotonin receptor (P28222 whole entry): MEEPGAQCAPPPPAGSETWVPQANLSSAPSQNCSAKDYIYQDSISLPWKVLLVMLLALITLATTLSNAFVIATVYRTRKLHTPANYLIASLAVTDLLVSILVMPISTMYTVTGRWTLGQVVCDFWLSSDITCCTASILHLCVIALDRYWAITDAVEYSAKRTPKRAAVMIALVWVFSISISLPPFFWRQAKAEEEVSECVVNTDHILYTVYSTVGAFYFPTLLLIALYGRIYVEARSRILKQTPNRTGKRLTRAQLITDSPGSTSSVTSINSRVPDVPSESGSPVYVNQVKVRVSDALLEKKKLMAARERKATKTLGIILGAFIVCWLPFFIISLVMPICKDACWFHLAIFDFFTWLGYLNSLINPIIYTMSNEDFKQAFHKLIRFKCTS

Counter-ions that a name gives are not always drawn. The star is where a group is joined. Cbz = O=C(OCc1ccccc1)*; CH2F = FC*

As to `CC(C)(C)NCC(O)COc1cccc2[nH]c(C#N)cc12` (stereo not drawn) [Cyanopindolol, cyanopindolol], the “effect on cellular cAMP levels” value in [1] is “not affected”.

With `CCCCCCCCCOc1ccc2[nH]cc(CCN)c2c1` [5-NOTO, 5-nonyloxytryptamine oxalate], in [2], the cytotoxicity at 10 µM is over 90%. The IC50 in data set [3] was about 10 µM. Further, the entries for the “apoptotic cell fraction (Annexin V positive)” value in data set [4], in data set [5] and in data set [6] were over 80%, “more than 60%” and over 70%, respectively. In [7], the cytotoxicity at 100 µM was 80 to 90%. Besides, in data set [1], the “effect on cellular cAMP levels” value is “not affected”. Besides, the “effect on cellular ATP levels” value in [8] is “depletes cellular ATP levels in a time and dose dependent fashion”. Moreover, the necrotic/dead fraction in [9] (10 μM, 30 minutes, DMSO 15.83%) is 54.17%. Besides, the viability at 48 h, 10 µM in data set [10] is over 90%. Also, the viability at 10 µM in data set [11] was found to be 10%. Moreover, the figures for the “% necrosis” value in data set [12], in data set [13] and in data set [14] were 56%, 65% and 25%, respectively. The “specificity for 5HTR1B over 5HTR1A” value in data set [15] is reported as 400 times.

Turning to “Cbz-Val-Ala-Asp-CH2F [reference compound]”, the “effect on 5-NOTO-induced necrotic/dead cell fraction” value in data set [9] (pre-treatment with 20 μM Z-VAD-FMK, then 10 μM 5-NOTO) is recorded as “no effect”.

For `CNS(=O)(=O)Cc1ccc2[nH]cc(CCN(C)C)c2c1` [sumatriptan], in [1], the “effect on cellular cAMP levels” value is recorded as “no effect”.
